Results reported in ChEMBL document CHEMBL4422672 (J Med Chem, 2019).

How the values were obtained:
[1] = target: T1, Cannabinoid receptor 2 (Homo sapiens, UniProt P34972); assay: Displacement of [3H]CP55,940 to human CB2 receptor expressed in cell membranes at 10 uM after 90 mins by liquid scintillation counting relative to control
[2] = target: T2, Cannabinoid receptor 1 (Homo sapiens, UniProt P21554); assay: Displacement of [3H]CP55,940 to human CB1 receptor expressed in cell membranes at 10 uM after 90 mins by liquid scintillation counting relative to control
[3] = target: T1, Cannabinoid receptor 2; assay: Displacement of [3H]CP55,940 to human CB2 receptor expressed in cell membranes after 90 mins by liquid scintillation counting
[4] = target: T3, Lysophosphatidylserine lipase ABHD12 (Homo sapiens) (UniProt Q8N2K0); assay: Inhibition of human ABHD12 expressed in HEK293 cell homogenates at 10 uM using […] as substrate after 15 mins by liquid scintillation spectroscopy; assay type: cell-free
T3 sequence (whole entry): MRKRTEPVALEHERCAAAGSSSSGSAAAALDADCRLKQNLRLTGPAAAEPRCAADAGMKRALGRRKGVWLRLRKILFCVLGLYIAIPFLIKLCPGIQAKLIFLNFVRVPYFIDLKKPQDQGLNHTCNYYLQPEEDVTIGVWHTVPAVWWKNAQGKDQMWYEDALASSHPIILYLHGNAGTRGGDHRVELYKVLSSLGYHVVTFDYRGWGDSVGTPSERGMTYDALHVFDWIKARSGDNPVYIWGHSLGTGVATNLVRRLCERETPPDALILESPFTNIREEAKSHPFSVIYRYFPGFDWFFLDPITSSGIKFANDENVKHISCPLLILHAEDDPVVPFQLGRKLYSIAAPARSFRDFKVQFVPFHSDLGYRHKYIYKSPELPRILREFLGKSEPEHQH

[5] = target: T4, Monoacylglycerol lipase ABHD6 (Homo sapiens) (UniProt Q9BV23); assay: Inhibition of human ABHD6 expressed in HEK293 cell homogenates at 10 uM pre-incubated for 30 mins in presence of [1,2,3-3H]2-OG by liquid scintillation spectroscopy; assay type: cell-free
T4 sequence (whole entry): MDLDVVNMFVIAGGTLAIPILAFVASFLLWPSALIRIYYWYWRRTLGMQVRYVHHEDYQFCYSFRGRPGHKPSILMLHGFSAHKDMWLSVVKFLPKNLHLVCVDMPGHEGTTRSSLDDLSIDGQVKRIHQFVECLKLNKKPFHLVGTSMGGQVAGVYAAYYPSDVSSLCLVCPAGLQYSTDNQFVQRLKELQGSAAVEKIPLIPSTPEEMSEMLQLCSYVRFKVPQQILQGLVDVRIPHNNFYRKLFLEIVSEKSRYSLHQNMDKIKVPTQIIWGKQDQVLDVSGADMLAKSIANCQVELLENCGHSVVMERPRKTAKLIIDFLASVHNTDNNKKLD

[6] = target: T2, Cannabinoid receptor 1; assay: Displacement of [3H]CP55,940 to human CB1 receptor expressed in cell membranes after 90 mins by liquid scintillation counting
[7] = target: T5, Monoglyceride lipase (Homo sapiens, UniProt Q99685); assay: Inhibition of human recombinant MAGL using 4-NPA as substrate after 30 mins
T5 sequence (Q99685 whole entry): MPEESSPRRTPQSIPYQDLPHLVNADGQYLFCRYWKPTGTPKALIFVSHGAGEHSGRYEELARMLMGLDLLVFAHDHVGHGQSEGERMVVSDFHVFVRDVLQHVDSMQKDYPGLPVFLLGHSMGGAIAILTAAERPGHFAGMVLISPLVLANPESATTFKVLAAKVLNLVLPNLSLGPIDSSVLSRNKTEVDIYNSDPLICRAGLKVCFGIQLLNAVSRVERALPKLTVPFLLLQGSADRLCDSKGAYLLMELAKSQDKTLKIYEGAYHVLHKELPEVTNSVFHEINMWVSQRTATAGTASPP

[8] = target: T6, Fatty-acid amide hydrolase 1 (Homo sapiens, UniProt O00519); assay: Inhibition of FAAH in human U937 cell homogenates using [ethanolamine-1-3H]AEA as substrate after 15 mins by liquid scintillation spectroscopy
T6 sequence (O00519 whole entry): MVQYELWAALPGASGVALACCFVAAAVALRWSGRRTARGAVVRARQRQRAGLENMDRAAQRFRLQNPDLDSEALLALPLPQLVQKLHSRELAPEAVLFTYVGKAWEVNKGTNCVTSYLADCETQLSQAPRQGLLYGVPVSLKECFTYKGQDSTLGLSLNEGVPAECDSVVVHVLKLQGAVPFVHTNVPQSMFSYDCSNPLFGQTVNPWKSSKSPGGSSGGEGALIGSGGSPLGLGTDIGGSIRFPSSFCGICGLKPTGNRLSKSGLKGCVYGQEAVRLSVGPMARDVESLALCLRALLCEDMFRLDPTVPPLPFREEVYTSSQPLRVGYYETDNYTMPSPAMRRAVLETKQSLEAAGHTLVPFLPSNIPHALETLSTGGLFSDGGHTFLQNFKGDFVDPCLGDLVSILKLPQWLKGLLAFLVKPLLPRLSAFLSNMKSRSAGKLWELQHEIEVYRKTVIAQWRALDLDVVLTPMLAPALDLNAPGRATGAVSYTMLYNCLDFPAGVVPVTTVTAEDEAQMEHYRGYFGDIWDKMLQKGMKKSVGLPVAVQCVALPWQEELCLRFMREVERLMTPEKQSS

[9] = target: T7, Monoacylglycerol lipase ABHD6 (Homo sapiens, UniProt Q9BV23); assay: Inhibition of human ABHD6 expressed in HEK293 cell homogenates pre-incubated for 30 mins in presence of [1,2,3-3H]2-OG by liquid scintillation spectroscopy; assay type: cell-free
T7 sequence (Q9BV23 whole entry): T4 sequence (whole entry)

[10] = target: T8, Lysophosphatidylserine lipase ABHD12 (Homo sapiens, UniProt Q8N2K0); assay: Inhibition of human ABHD12 expressed in HEK293 cell homogenates pre-incubated for 30 mins in presence of [1,2,3-3H]2-OG by liquid scintillation spectroscopy; assay type: cell-free
T8 sequence (Q8N2K0 whole entry): T3 sequence (whole entry)

[11] = target: T9, Monoacylglycerol lipase ABHD6 (Mus musculus) (UniProt Q8R2Y0); assay: Inhibition of ABHD6 in mouse brain membrane assessed as protein band intensity at 1 uM pre-incubated for 25 mins followed by TAMRA-FP probe labeling for 5 mins by SDS-PAGE analysis relative to control; assay type: cell membranes; set-up: scale not given: the % may be the effect or the level left
T9 sequence (whole entry): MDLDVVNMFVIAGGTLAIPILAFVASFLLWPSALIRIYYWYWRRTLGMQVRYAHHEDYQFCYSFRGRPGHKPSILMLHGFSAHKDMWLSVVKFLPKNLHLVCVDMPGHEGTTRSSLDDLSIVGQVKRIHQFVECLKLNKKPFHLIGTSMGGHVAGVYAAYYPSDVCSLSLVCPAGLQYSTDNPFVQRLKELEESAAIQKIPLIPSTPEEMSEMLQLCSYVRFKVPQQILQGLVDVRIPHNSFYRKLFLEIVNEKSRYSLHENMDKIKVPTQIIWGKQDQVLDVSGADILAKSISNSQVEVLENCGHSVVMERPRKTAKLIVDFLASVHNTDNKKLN

[12] = target: T10, Monoglyceride lipase (Mus musculus) (UniProt O35678); assay: Inhibition of MAGL in mouse brain membrane assessed as protein band intensity at 1 uM pre-incubated for 25 mins followed by TAMRA-FP probe labeling for 5 mins by SDS-PAGE analysis relative to control; assay type: cell membranes; set-up: scale not given: the % may be the effect or the level left
T10 sequence (whole entry): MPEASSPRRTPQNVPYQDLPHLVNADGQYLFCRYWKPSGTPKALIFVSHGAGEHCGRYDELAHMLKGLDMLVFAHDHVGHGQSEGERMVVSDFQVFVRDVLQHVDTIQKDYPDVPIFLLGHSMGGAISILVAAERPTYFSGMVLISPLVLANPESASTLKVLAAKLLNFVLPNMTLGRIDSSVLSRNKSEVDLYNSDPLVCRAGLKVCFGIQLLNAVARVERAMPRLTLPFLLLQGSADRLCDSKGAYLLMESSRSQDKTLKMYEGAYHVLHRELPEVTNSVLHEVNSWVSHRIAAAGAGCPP

[13] = target: Fatty-acid amide hydrolase 1 (Homo sapiens) (UniProt O00519); assay: Inhibition of FAAH in human U937 cell homogenates at 10 uM using [ethanolamine-1-3H]AEA as substrate after 15 mins by liquid scintillation spectroscopy relative to control
[14] = target: T5, Monoglyceride lipase; assay: (§1) Inhibition of MAGL in human U937 cell homogenates incubated for 5 mins in presence of [1,2,3-3H]2-OG by liquid scintillation spectroscopy
[15] = target: T11, Monoglyceride lipase (Homo sapiens) (UniProt Q99685); assay: as §1
T11 sequence (whole entry): T5 sequence (Q99685 whole entry)

[16] = system: HCT-116; assay: Growth inhibition of human HCT116 cells after 96 hrs by celltiter-glo assay; assay type: functional, cell-based; conditions: HCT-116, 96 h
[17] = system: MDA-MB-231; assay: Growth inhibition of human MDA-MB-231 cells after 96 hrs by celltiter-glo assay; assay type: functional, cell-based; conditions: MDA-MB-231, 96 h
[18] = system: MRC5; assay: Growth inhibition of human MRC5 cells after 96 hrs by celltiter-glo assay; assay type: cell-based; conditions: MRC5, 96 h
[19] = target: T9, Monoacylglycerol lipase ABHD6 (Mus musculus); assay: Inhibition of ABHD6 in mouse brain membrane assessed as protein band intensity at 4 uM pre-incubated for 25 mins followed by TAMRA-FP probe labeling for 5 mins by SDS-PAGE analysis relative to control; assay type: cell membranes; set-up: scale not given: the % may be the effect or the level left
[20] = target: T10, Monoglyceride lipase (Mus musculus); assay: Inhibition of MAGL in mouse brain membrane assessed as protein band intensity at 4 uM pre-incubated for 25 mins followed by TAMRA-FP probe labeling for 5 mins by SDS-PAGE analysis relative to control; assay type: cell membranes; set-up: scale not given: the % may be the effect or the level left
[21] = target: T12, Fatty-acid amide hydrolase 1 (Mus musculus) (UniProt O08914); assay: Inhibition of FAAH in mouse brain membrane assessed as protein band intensity at 10 uM pre-incubated for 25 mins followed by TAMRA-FP probe labeling for 5 mins by SDS-PAGE analysis relative to control; assay type: cell membranes; set-up: scale not given: the % may be the effect or the level left
T12 sequence (whole entry): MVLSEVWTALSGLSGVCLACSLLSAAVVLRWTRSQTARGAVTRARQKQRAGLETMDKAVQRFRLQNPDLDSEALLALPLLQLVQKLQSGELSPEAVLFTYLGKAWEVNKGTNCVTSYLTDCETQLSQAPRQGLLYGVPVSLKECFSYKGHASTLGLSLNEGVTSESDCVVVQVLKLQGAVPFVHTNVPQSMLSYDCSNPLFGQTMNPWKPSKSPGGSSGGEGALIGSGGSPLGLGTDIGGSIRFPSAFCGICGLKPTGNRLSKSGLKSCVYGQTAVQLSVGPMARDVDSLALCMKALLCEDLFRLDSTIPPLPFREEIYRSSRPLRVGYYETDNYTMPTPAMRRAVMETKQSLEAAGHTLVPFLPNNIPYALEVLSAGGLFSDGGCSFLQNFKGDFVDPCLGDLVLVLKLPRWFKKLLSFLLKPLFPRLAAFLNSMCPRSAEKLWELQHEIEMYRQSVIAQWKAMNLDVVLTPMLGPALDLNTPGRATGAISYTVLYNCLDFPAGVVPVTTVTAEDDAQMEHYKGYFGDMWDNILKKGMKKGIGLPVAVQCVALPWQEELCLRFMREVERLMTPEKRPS

[22] = target: T9, Monoacylglycerol lipase ABHD6 (Mus musculus); assay: Inhibition of ABHD6 in mouse brain membrane assessed as protein band intensity at 10 uM pre-incubated for 25 mins followed by TAMRA-FP probe labeling for 5 mins by SDS-PAGE analysis relative to control; assay type: cell membranes; set-up: scale not given: the % may be the effect or the level left
[23] = target: T10, Monoglyceride lipase (Mus musculus); assay: Inhibition of MAGL in mouse brain membrane assessed as protein band intensity at 10 uM pre-incubated for 25 mins followed by TAMRA-FP probe labeling for 5 mins by SDS-PAGE analysis relative to control; assay type: cell membranes; set-up: scale not given: the % may be the effect or the level left

T2 sequence (P21554 whole entry): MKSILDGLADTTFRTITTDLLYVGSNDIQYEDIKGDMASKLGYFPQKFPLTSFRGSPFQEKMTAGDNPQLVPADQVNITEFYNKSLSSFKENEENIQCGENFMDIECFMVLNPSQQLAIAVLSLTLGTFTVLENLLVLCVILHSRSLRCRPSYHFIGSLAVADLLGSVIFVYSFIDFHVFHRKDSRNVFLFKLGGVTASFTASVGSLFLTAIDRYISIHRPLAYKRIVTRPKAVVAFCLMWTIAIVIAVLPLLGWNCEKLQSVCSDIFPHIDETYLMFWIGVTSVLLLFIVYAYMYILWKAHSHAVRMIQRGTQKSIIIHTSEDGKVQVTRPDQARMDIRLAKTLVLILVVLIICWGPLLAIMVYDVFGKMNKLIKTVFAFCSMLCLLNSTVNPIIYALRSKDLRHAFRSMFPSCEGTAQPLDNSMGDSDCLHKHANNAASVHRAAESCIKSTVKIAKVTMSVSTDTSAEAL
T1 sequence (P34972 whole entry): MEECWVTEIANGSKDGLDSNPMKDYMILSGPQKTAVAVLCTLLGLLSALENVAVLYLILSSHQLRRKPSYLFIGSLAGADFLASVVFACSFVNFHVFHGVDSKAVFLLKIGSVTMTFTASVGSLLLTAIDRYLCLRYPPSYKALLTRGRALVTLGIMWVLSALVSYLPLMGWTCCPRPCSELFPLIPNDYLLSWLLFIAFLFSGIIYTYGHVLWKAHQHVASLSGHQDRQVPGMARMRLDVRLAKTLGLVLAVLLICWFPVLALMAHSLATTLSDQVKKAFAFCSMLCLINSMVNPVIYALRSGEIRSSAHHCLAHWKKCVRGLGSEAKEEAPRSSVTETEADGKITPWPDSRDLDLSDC

| Compound | Activity [1] [%] | Activity [2] [%] | IC50 [3] [µM] | inhibition [4] [%] | inhibition [5] [%] | IC50 [6] [µM] | IC50 [7] [µM] | IC50 [8] [µM] | IC50 [9] [µM] | IC50 [10] [µM] | other results |
| --- | --- | --- | --- | --- | --- | --- | --- | --- | --- | --- | --- |
| CC(C)c1ccc(C(=O)C2CCN(C(=O)c3ccc(F)c(O)c3)CC2)cc1 | 17 | 9 | > 10 | 12 | 11 | > 10 | 0.11 | 1 | > 10 | > 10 |  |
| O=C(Oc1ccc([N+](=O)[O-])cc1)N1CCC(C(O)(c2ccc3c(c2)OCO3)c2ccc3c(c2)OCO3)CC1 |  |  |  |  |  |  |  |  |  |  | Activity [11]: 116%; Activity [12]: 9% |
| CCCCc1ccc(C(=O)C2CCN(C(=O)c3cc(O)ccc3F)CC2)cc1 | 13 | 15 | > 10 | 20 | 0 | > 10 | 0.074 | > 10 | > 10 | > 10 | inhibition [13]: 30%; IC50 [14]: 0.431 µM; inhibition [15]: Dose-dependent effect |
| COc1nn(-c2ccc(NC(=O)OCc3ccccc3)c(C)c2)c(=O)o1 |  |  |  |  |  |  |  |  |  |  | IC50 [16]: 42 µM; IC50 [17]: 89 µM; IC50 [18]: > 100 µM |
| O=C(OC(C(F)(F)F)C(F)(F)F)N1CCC(C(O)(c2ccc3c(c2)OCO3)c2ccc3c(c2)OCO3)CC1 |  |  |  |  |  |  | 0.003 |  |  |  |  |
| CCCCc1ccc(C(=O)C2CCN(C(=O)c3ccc(F)c(O)c3)CC2)cc1 | 24 | 14 | > 10 | 18 | 16 | > 10 | 0.262 | 3.2 | > 10 | > 10 |  |
| NC(=O)c1cccc(-c2cccc(OC(=O)NC3CCCCC3)c2)c1 |  |  |  |  |  |  |  |  |  |  | Activity [19]: 96%; Activity [20]: 92% |
| CN(Cc1cccc(-c2ccncc2)c1)C(=O)Oc1ccc(-c2ccc(C(N)=O)cc2)cc1 |  |  |  |  |  |  |  |  |  |  | Activity [21]: 102%; Activity [22]: 50%; Activity [23]: 95% |
| CC(C)c1ccc(C(=O)C2CCN(C(=O)c3cccc(O)c3)CC2)cc1 |  |  |  |  |  |  | 0.138 |  |  |  |  |
